Conditions: Liquid, Vibrating tube method

COCCOC(C)=O [2-methoxyethyl ethanoate]
Conditions | mass density [kg/m3]
283.47 K, 100 kPa | 1015.98
283.47 K, 1000 kPa | 1016.6
283.47 K, 3000 kPa | 1018.02
283.47 K, 5000 kPa | 1019.43
283.47 K, 10000 kPa | 1022.82
283.47 K, 20000 kPa | 1029.33
283.47 K, 25000 kPa | 1032.44
283.47 K, 30000 kPa | 1035.47
283.47 K, 40000 kPa | 1041.29
283.47 K, 50000 kPa | 1046.81
283.47 K, 60000 kPa | 1052.11
283.47 K, 70000 kPa | 1057.33
283.47 K, 80000 kPa | 1062.12
283.47 K, 100000 kPa | 1071.34
283.48 K, 15000 kPa | 1026.12
283.48 K, 90000 kPa | 1066.8
293.45 K, 100 kPa | 1005.18
293.45 K, 1000 kPa | 1005.85
293.45 K, 3000 kPa | 1007.33
293.45 K, 5000 kPa | 1008.8
293.45 K, 10000 kPa | 1012.42
293.45 K, 15000 kPa | 1015.91
293.45 K, 20000 kPa | 1019.32
293.45 K, 25000 kPa | 1022.58
293.45 K, 30000 kPa | 1025.8
293.45 K, 40000 kPa | 1031.92
293.45 K, 50000 kPa | 1037.72
293.45 K, 60000 kPa | 1043.26
293.45 K, 70010 kPa | 1048.51
293.45 K, 90000 kPa | 1058.45
293.46 K, 80010 kPa | 1053.61
293.46 K, 100000 kPa | 1063.15
303.37 K, 100 kPa | 993.64
303.37 K, 5000 kPa | 997.55
303.37 K, 25000 kPa | 1012.15
303.37 K, 90010 kPa | 1049.67
303.38 K, 1000 kPa | 994.33
303.38 K, 3000 kPa | 995.95
303.38 K, 10000 kPa | 1001.38
303.38 K, 15000 kPa | 1005.07
303.38 K, 20000 kPa | 1008.68
303.38 K, 30000 kPa | 1015.48
303.38 K, 40000 kPa | 1021.92
303.38 K, 50000 kPa | 1027.99
303.38 K, 60000 kPa | 1033.79
303.38 K, 70000 kPa | 1039.34
303.38 K, 80000 kPa | 1044.62
303.38 K, 100000 kPa | 1054.53
313.28 K, 25000 kPa | 1002.26
313.29 K, 100 kPa | 982.6
313.29 K, 20000 kPa | 998.59
313.3 K, 1000 kPa | 983.35
313.3 K, 3000 kPa | 985.09
313.3 K, 5000 kPa | 986.8
313.3 K, 10000 kPa | 990.88
313.3 K, 15000 kPa | 994.81
313.3 K, 30000 kPa | 1005.78
313.3 K, 40000 kPa | 1012.55
313.3 K, 50000 kPa | 1018.92
313.3 K, 60000 kPa | 1024.91
313.3 K, 70000 kPa | 1030.73
313.3 K, 80000 kPa | 1036.18
313.3 K, 90000 kPa | 1041.42
313.3 K, 100000 kPa | 1046.43
323.14 K, 100 kPa | 971.53
323.14 K, 1000 kPa | 972.34
323.14 K, 3000 kPa | 974.16
323.15 K, 5000 kPa | 975.96
323.15 K, 10000 kPa | 980.29
323.15 K, 15000 kPa | 984.47
323.15 K, 20000 kPa | 988.47
323.15 K, 25000 kPa | 992.34
323.15 K, 70000 kPa | 1022.15
323.15 K, 80000 kPa | 1027.84
323.15 K, 90000 kPa | 1033.26
323.15 K, 100000 kPa | 1038.48
323.16 K, 30000 kPa | 996.08
323.16 K, 40000 kPa | 1003.14
323.16 K, 50000 kPa | 1009.8
323.16 K, 60000 kPa | 1016.1
333.01 K, 100 kPa | 960.32
333.01 K, 1000 kPa | 961.21
333.01 K, 3000 kPa | 963.17
333.01 K, 50000 kPa | 1000.75
333.01 K, 60000 kPa | 1007.3
333.02 K, 5000 kPa | 965.08
333.02 K, 10000 kPa | 969.69
333.02 K, 15000 kPa | 974.13
333.02 K, 20000 kPa | 978.36
333.02 K, 25000 kPa | 982.46
333.02 K, 30000 kPa | 986.35
333.02 K, 40000 kPa | 993.79
333.02 K, 70000 kPa | 1013.7
333.02 K, 80000 kPa | 1019.56
333.02 K, 90000 kPa | 1025.22
333.02 K, 100000 kPa | 1030.6
342.87 K, 1000 kPa | 949.88
342.88 K, 100 kPa | 948.92
342.88 K, 3000 kPa | 951.95
342.89 K, 5000 kPa | 953.98
342.89 K, 10000 kPa | 958.88
342.89 K, 15000 kPa | 963.56
342.89 K, 20000 kPa | 968.04
342.89 K, 25000 kPa | 972.33
342.9 K, 30000 kPa | 976.44
342.9 K, 40000 kPa | 984.26
342.9 K, 50000 kPa | 991.52
342.9 K, 60000 kPa | 998.35
342.9 K, 70000 kPa | 1005.1
342.9 K, 80010 kPa | 1011.23
342.9 K, 90000 kPa | 1017.07
342.9 K, 100000 kPa | 1022.63
352.77 K, 10000 kPa | 948.28
352.77 K, 15000 kPa | 953.26
352.77 K, 20000 kPa | 958
352.78 K, 25000 kPa | 962.53
352.78 K, 30000 kPa | 966.88
352.78 K, 40000 kPa | 975.07
352.78 K, 50000 kPa | 982.69
352.78 K, 60000 kPa | 989.8
352.79 K, 100 kPa | 937.57
352.79 K, 1000 kPa | 938.6
352.79 K, 3000 kPa | 940.86
352.79 K, 5000 kPa | 943.03
352.79 K, 70000 kPa | 996.7
352.79 K, 80000 kPa | 1003.07
352.79 K, 90000 kPa | 1009.1
352.79 K, 100000 kPa | 1014.88
362.64 K, 100 kPa | 926.12
362.64 K, 1000 kPa | 927.21
362.64 K, 3000 kPa | 929.6
362.64 K, 5000 kPa | 931.91
362.64 K, 15000 kPa | 942.8
362.64 K, 50000 kPa | 973.78
362.65 K, 10000 kPa | 937.52
362.65 K, 20000 kPa | 947.84
362.65 K, 25000 kPa | 952.6
362.65 K, 30000 kPa | 957.19
362.65 K, 40000 kPa | 965.79
362.65 K, 60000 kPa | 981.22
362.65 K, 70000 kPa | 988.32
362.65 K, 80000 kPa | 994.92
362.65 K, 90000 kPa | 1001.16
362.65 K, 100000 kPa | 1007.15

Reference: the NIST ThermoML archive (doi:10.1021/acs.jced.5b00385)
